Measured values reported in publication PMC10714399, “Open Source Antibiotics: Simple Diarylimidazoles Are Potent against Methicillin-Resistant Staphylococcus aureus” (ACS Infectious Diseases, 2023).
Converted amounts (≈) assume the structure as drawn. “And” between values parts separate entries of the source, which are not always exact repeats. Equal values may be shown once. Read-outs that look alike come from different tables or passages of the source.

Key:
[1] = system: Staphylococcus aureus NCTC 13373 (mecA-positive; methicillin-resistant); assay: In vitro antibacterial activity, MIC (UCL School of Pharmacy assay), MRSA; type: cell-based; settings: for MIC: Staphylococcus aureus
In short: (§1)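 Each organism was taken from overnight tryptone soya agar, suspended in PBS at A600 0.1, diluted 1:100 in isosensitest broth and added to serially diluted compound (32 to 0.03 μg/mL).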

[2] = system: Enterococcus faecalis ATCC 51299 (vanA-positive; vancomycin-resistant); assay: In vitro antibacterial activity, MIC (UCL), VRE; type: cell-based
Method: Staphylococcus aureus NCTC 13373 (mecA-positive; methicillin-resistant, NCTC 13373) was supplied by the National Collection of Type Cultures (NCTC), Public Health England, United Kingdom. Other organisms, S. aureus ATCC 25923 (methicillin-susceptible) and Enterococcus faecalis ATCC 51299 (vanA-positive; vancomycin-resistant), were obtained from the American Type Culture Collection (ATCC) via LGC Standards, UK. A suspension of each organism was prepared from an overnight plate culture (tryptone soya agar) in phosphate-buffered saline (PBS) and adjusted to an absorbance reading at 600 nm of 0.1, which is approximately equivalent to 1 × 10^8 colony-forming units (CFU) per mL. The cultures were further diluted 1:100 in isosensitest broth (Oxoid, United Kingdom) before 100 μL was used to inoculate each well of a 96-well plate that contained diluted samples of the OSA series. Compounds were evaluated over a 2-fold dilution range from 32 to 0.03 μg/mL. Stocks of the samples were prepared in 100% DMSO at […] before being diluted in isosenstitest broth. The highest concentration of DMSO present was 2%, which has been previously shown not to inhibit the growth of the microorganisms (data not shown). […] Vancomycin was used as a quality control compound.

[3] = Aqueous solubility; type: physicochemical; settings: for solubility: thermodynamic from solid
From the text: To guide our initial SAR exploration work, we obtained liver microsomal intrinsic clearance data for 5 of the 18 compounds assayed by CO-ADD (Supporting Information - CDCO Report and Supporting Information - Biology). We then acquired intrinsic clearance (CLint), plasma protein binding (PPB), and solubility data on further compounds throughout the SAR campaign (Supporting Information - Biology, Tables S3 and S4). […] The more polar compounds (lower LogD) had reduced PPB and were more metabolically stable.
(§2) Table S4. ADME and Pharmacokinetics: compounds only appearing in the Supplementary […]
(§3) MRSA Aqueous HLM CLint Rat Hep CLint
(§4) Cmpd MIC Solubility Human PPB (%) (µL/min/mg (µL/min/10x6 LogD7.4
(§5) (µg/mL) (µM) protein) cells)
(§6) ADME and toxicity for compounds were measured according to procedures outlined in the manuscript submitted in parallel to this one;2 other procedures were used for those compounds analysed by Monash University (in vitro ADME) or UCL (toxicity), both described in the main

[4] = Human plasma protein binding (PPB); type: in vitro ADME; settings: human, plasma
From the text: (§7) To guide our initial SAR exploration work, we obtained liver microsomal intrinsic clearance data for 5 of the 18 compounds assayed by CO-ADD (Supporting Information - CDCO Report and Supporting Information - Biology). We then acquired intrinsic clearance (CLint), plasma protein binding (PPB), and solubility data on further compounds throughout the SAR campaign (Supporting Information - Biology, Tables S3 and S4).
as §2, §3, §4, §5, §6

[5] = Human liver microsome intrinsic clearance; type: in vitro ADME
From the text: as §7, §2, §3, §4, §5, §6

[6] = Rat hepatocyte intrinsic clearance; type: in vitro ADME
From the text: as §7, §2, §3, §4, §5, §6

[7] = system: S. aureus ATCC 25923 (methicillin-susceptible); assay: In vitro antibacterial activity, MIC (UCL), MSSA; type: cell-based, Staphylococcus aureus; settings: Staphylococcus aureus
In short: as §1

[8] = system: MRC-5SV2 (human lung fibroblast cell line); assay: Toxicity against MRC-5SV2; type: cell-based
Method: as §6

[9] = system: PMM (primary mouse macrophages); assay: Toxicity against PMM; type: cell-based
Method: as §6

[10] = read-out: Human PPB (converted)
[11] = UCL assay, read-out: MRSA MIC (ug/mL) (UCL)
[12] = UCL assay, read-out: MSSA MIC (ug/mL) (UCL)
[13] = NEU, read-out: Aqueous Solubility (uM) (NEU)
[14] = human plasma, NEU, read-out: Human PPB (NEU) (converted)
[15] = NEU, read-out: Aqueous Solubility (NEU)

For `CN(C)C(=O)c1ccc(-c2c(-c3ccccn3)nc3n2CCC3)cc1` [compound 974], which “activity against MRSA, in words” value [1] is on record?
The value was “not tolerated”.

What about the MIC ([1]; 16 h, read-out: MRSA MIC) of the same molecule?
The MIC was greater than 32 µg/mL.

And the MIC ([1]; read-out: MRSA MIC)?
The MIC was greater than 32 µg/mL.

And the MIC ([2]; read-out: VRE MIC)?
The MIC was greater than 32 µg/mL.

What about the solubility ([3]; read-out: Aqueous Solubility) of the same molecule?
The solubility was 782 µM (≈ 260 µg/mL).

And the fraction unbound [4, 10]?
The fraction unbound was 0.55.

And the microsomal CLint ([5]; human, liver microsomes, read-out: HLM CLint)?
The microsomal CLint was less than 3 µL/min/mg.

And the hepatocyte CLint ([6]; rat, hepatocytes, Figure 4, read-out: Rat Hep CLint)?
The hepatocyte CLint was less than 1 µL/min/1e6 cells.

Which MIC [1, 11] does the source give for `CC(=O)N(c1ccc(F)cc1)c1c(-c2ccccn2)nc2ccccn12` [OSA_001021] here?
The MIC was greater than 32 µg/mL.

What about the MIC [7, 12] of the same molecule?
The MIC was greater than 32 µg/mL.

And the solubility [3, 13]?
Its solubility is 10 µM (≈ 3.46 µg/mL).

And the fraction unbound ([4]; human plasma, NEU, read-out: Human PPB (%) (NEU) (converted))?
Its fraction unbound is 0.17.

And the “HLM CLint (uL/min/mg protein) (NEU)” value ([5]; human liver microsomes, NEU)?
Its value is 19.8 uL/min/mg protein.

And the “Rat Hep CLint (uL/min/10x6 cells) (NEU)” value ([6]; rat hepatocytes, NEU)?
Its value is 81.2 uL/min/10x6 cells.

And the “MRC5 TC50” value ([8]; MRC5 cells)?
Its value is 64 µM.

And the “PMM TC50” value ([9]; PMM)?
The value was 64 µM.

What does the source list for `COc1ccc(-c2nc3ccccn3c2Nc2ccc(F)cc2)nc1` [OSA_001022]?
MIC [1, 11]: 8 µg/mL (≈ 23.9 µM); MIC [7, 12]: 8 µg/mL (≈ 23.9 µM); solubility [3, 13]: 3 µM (≈ 1 µg/mL)

With `COc1ccn2c(Nc3ccccc3F)c(-c3cnn(C)c3)nc2c1` [compound 855] as the molecule, how does the “MRSA MIC” value [1] read?
Its value is > 32 µg/mL and 32 µg/mL.

And the “VRE MIC” value [2]?
The value was greater than 32 µg/mL.

What about the “MRC5 TC50” value [8] of the same molecule?
Its value is 21.6 µg/mL.

And the “PMM TC50” value [9]?
Its value is 21.6 µg/mL.

What does the source list for `C[S+]([O-])c1ccc(-c2c(-c3ccccn3)nc3n2CCC3)cc1` (centres unmarked) [OSA_000838]?
MIC ([1]; UCL, read-out: MRSA MIC (UCL)): > 32 µg/mL; MIC ([2]; read-out: VRE MIC (UCL)): > 32 µg/mL; Aqueous Solubility (NEU) ([3]; NEU): 756 µM; fraction unbound [4, 14]: 0.45; HLM CLint (NEU) ([5]; human liver microsomes, NEU): <3 uL/min/mg protein; Rat Hep CLint (NEU) ([6]; rat hepatocytes, NEU): <1 uL/min/10x6 cells

For `FC(F)(F)Oc1ccc(-c2c(-c3ccccn3)nc3n2CCC3)cc1` [OSA_000868], which MIC ([1]; UCL, read-out: MRSA MIC (UCL)) is on record?
Its MIC is 8 µg/mL (≈ 23.2 µM).

What about the MIC ([2]; read-out: VRE MIC (UCL)) of the same molecule?
The MIC was 32 µg/mL (≈ 92.7 µM).

What about the solubility [3, 15] of the same molecule?
The solubility was 38 µM (≈ 13.1 µg/mL).

What about the fraction unbound [4, 14] of the same molecule?
The fraction unbound was 0.044.

And the “HLM CLint (NEU)” value ([5]; human liver microsomes, NEU)?
The value was 62.2 uL/min/mg protein.

What about the “Rat Hep CLint (NEU)” value ([6]; rat hepatocytes, NEU) of the same molecule?
Its value is 54.1 uL/min/10x6 cells.

With `Clc1ccc(-c2c(-c3ccccn3)nc3n2CCC3)cc1Cl` [OSA_000876] as the molecule, how does the MIC ([1]; UCL, read-out: MRSA MIC (UCL)) read?
Its MIC is 8 µg/mL (≈ 24.2 µM).

And the MIC ([2]; read-out: VRE MIC (UCL))?
Its MIC is 8 µg/mL (≈ 24.2 µM).

And the solubility [3, 15]?
Its solubility is 3 µM (≈ 0.991 µg/mL).

And the fraction unbound [4, 14]?
Its fraction unbound is 0.015.

What about the “HLM CLint (NEU)” value ([5]; human liver microsomes, NEU) of the same molecule?
The value was 100 uL/min/mg protein.

What about the “Rat Hep CLint (NEU)” value ([6]; rat hepatocytes, NEU) of the same molecule?
Its value is 37.7 uL/min/10x6 cells.

What does the source list for `COc1ccn2cc(-c3ccccn3)nc2c1` [compound 856]?
MRSA MIC [1]: > 32 µg/mL and 32 µg/mL; VRE MIC [2]: > 32 µg/mL; MRC5 TC50 [8]: 11.6 µg/mL; PMM TC50 [9]: 14.4 µg/mL

What does the source list for `N#Cc1ccc(-c2c(-c3ccccn3)nc3n2CCC3)cc1` [compound 975]?
MIC ([1]; 16 h, read-out: MRSA MIC): 4 µg/mL (≈ 14 µM); MIC ([1]; read-out: MRSA MIC): 4 µg/mL (≈ 14 µM); MIC ([2]; read-out: VRE MIC): 16 µg/mL (≈ 55.9 µM); solubility ([3]; read-out: Aqueous Solubility): 38 µM (≈ 10.9 µg/mL); fraction unbound [4, 10]: 0.29; MRC5 TC50 [8]: 7.4 µg/mL; PMM TC50 [9]: 18.3 µg/mL

With `c1ccc(-c2nc3n(c2-c2ccc4sc5ccccc5c4c2)CCC3)nc1` [OSA_000831] as the molecule, how does the MIC ([1]; UCL, read-out: MRSA MIC (UCL)) read?
Its MIC is 8 µg/mL (≈ 21.8 µM).

And the solubility [3, 15]?
Its solubility is 3 µM (≈ 1.1 µg/mL).

And the fraction unbound [4, 14]?
The fraction unbound was 0.0008.

And the “HLM CLint (NEU)” value ([5]; human liver microsomes, NEU)?
The value was 42.6 uL/min/mg protein.

What about the “Rat Hep CLint (NEU)” value ([6]; rat hepatocytes, NEU) of the same molecule?
Its value is 151 uL/min/10x6 cells.

For `COc1ccnc(-c2nc3ccccn3c2N(C)c2ccc(F)cc2)c1` [OSA_001007], which MIC ([1]; UCL, read-out: MRSA MIC (UCL)) is on record?
Its MIC is 8 µg/mL (≈ 23 µM).

What about the MIC ([7]; read-out: MSSA MIC (UCL)) of the same molecule?
Its MIC is 8 µg/mL (≈ 23 µM).

And the solubility [3, 15]?
The solubility was 26 µM (≈ 9.06 µg/mL).

What about the fraction unbound [4, 14] of the same molecule?
Its fraction unbound is 0.025.

And the microsomal CLint ([5]; human liver microsomes, NEU, read-out: HLM CLint (NEU))?
Its microsomal CLint is 214 µL/min/mg.

What about the hepatocyte CLint ([6]; rat hepatocytes, NEU, read-out: Rat Hep CLint (NEU)) of the same molecule?
Its hepatocyte CLint is greater than 300 µL/min/1e6 cells.

Which MIC ([1]; UCL, read-out: MRSA MIC (UCL)) does the source give for `CS(=O)(=O)c1ccc(-c2c(-c3ccccn3)nc3n2CCC3)cc1` [OSA_000837] here?
Its MIC is greater than 32 µg/mL.

What about the MIC ([2]; read-out: VRE MIC (UCL)) of the same molecule?
Its MIC is greater than 32 µg/mL.

And the “Aqueous Solubility (NEU)” value ([3]; NEU)?
Its value is 317 µM.

What about the fraction unbound [4, 14] of the same molecule?
Its fraction unbound is 0.4.

What about the “HLM CLint (NEU)” value ([5]; human liver microsomes, NEU) of the same molecule?
Its value is less than 3 uL/min/mg protein.

What about the “Rat Hep CLint (NEU)” value ([6]; rat hepatocytes, NEU) of the same molecule?
Its value is less than 1 uL/min/10x6 cells.

For `FC(F)(F)c1ccc(-c2c(-c3ccccn3)nc3n2CCC3)cc1` [compound 1052], which MIC ([1]; read-out: MRSA MIC) is on record?
The MIC was 16 µg/mL (≈ 48.6 µM).

And the MIC ([7]; read-out: MSSA MIC)?
The MIC was 16 µg/mL (≈ 48.6 µM).

What about the “MRC5 TC50” value [8] of the same molecule?
The value was 2.7 µg/mL.

What about the “PMM TC50” value [9] of the same molecule?
The value was 10.5 µg/mL.

With `Fc1ccc(NCc2c(-c3ccccn3)nc3ccccn23)cc1` [OSA_001019] as the molecule, how does the MIC [1, 11] read?
The MIC was greater than 32 µg/mL.

And the MIC [7, 12]?
Its MIC is greater than 32 µg/mL.

What about the “MRC5 TC50” value ([8]; MRC5 cells) of the same molecule?
Its value is 64 µM.

And the “PMM TC50” value ([9]; PMM)?
Its value is 64 µM.
